{
  "source": "patent US5811083A",
  "about": "“Tocopherol derivatives for use in cosmetic compositions” (Estee Lauder, Inc., priority 1996, dated 1998)",
  "key": {"[1]": {"test_system": "UV-induced lipid peroxidation", "experiment": "in vitro liposomal/UV assay, inhibition of UV-induced lipid peroxidation", "format": "biochemical", "protocol": "The antioxidant potential and stability of equimolar concentrations of tocopherol-cysteamine, cysteamine, and a α-tocopherol were compared using an in vitro liposomal/UV assay. This assay provides an effective means of measuring an antioxidant's potential to inhibit UV-induced lipid peroxidation which may correlate with the antioxidant's inhibition of free radical generation in the skin. […] The antioxidant contribution of cysteamine to the derivative was tested by measuring cysteamine alone and determined to be 20.1%."}, "[2]": {"test_system": "UV-induced lipid peroxidation", "experiment": "UV/liposomal assay of anti-oxidant activity after storage for five years at ambient temperatures", "format": "biochemical", "settings": "for Inhibition: average of two separate assays performed in duplicate; for retention of antioxidant activity on storage: dry powder form, ambient temperatures, five years", "protocol": "The tocopherol sample used in this assay was freshly prepared and stored under argon gas in a sealed amber ampoule at -20° C. […] In contrast, the tocopherol-cysteamine samples used in the assay were stored in dry powder form at ambient temperatures for more than five years. […] In particular, several materials, including two batches of tocopherol-cysteamine, were tested for anti-oxidant activity using a UV/liposomal assay. The results reported below represent the average of two separate assays performed in duplicate."}, "[3]": {"test_system": "lipid peroxidation, human skin", "experiment": "clinical study, lipid peroxides in ethanol washes of ventral forearms after topical cream", "format": "in vivo", "settings": "for average level of peroxides, 500 mJ/cm^2 + Ao: UVB 500 mJ/cm^2; for average level of peroxides, 0 + Ao: not irradiated", "protocol": "A clinical study was undertaken in order to measure the effectiveness of topically applied compositions containing tocopherol-cysteamine on human skin. Protection against lipid peroxidation was used as a biological marker in a study of twenty subjects.\nA cream containing 0.10% tocopherol-cysteamine and other antioxidants was prepared using the batch formulation of Table III.\nThe cream containing 0.10% tocopherol-cysteamine was applied by the panelists to their left ventral forearms twice daily. The same cream formulation without any antioxidants was used as the control and applied to the right ventral forearms. At 0, 4, 8 and 12 weeks, ethanol washes were taken and samples aliquoted for endogenous levels of lipid peroxides, susceptibility to lipid peroxidation by UVB irradiation at 500 mJ/cm^2, and lipid analysis."}, "[4]": {"settings": "ambient temperatures, over a period of one week; cited from earlier work"}, "[5]": {"settings": "cited from earlier work"}, "[6]": {"settings": "week 0, cream 0.10% tocopherol-cysteamine and other antioxidants"}, "[7]": {"settings": "week 4, cream 0.10%, twice daily"}, "[8]": {"settings": "week 8, cream 0.10%, twice daily"}, "[9]": {"settings": "week 12, cream 0.10%, twice daily"}},
  "note": "Entries after “also recorded” stand apart in the source; their conditions may differ.",
  "data": [
    {"compound": "NCCS", "note": "[Cysteamine, cysteamine, reference compound]", "values": [
      {"measurement": "% Inhibition (UV-induced lipid peroxidation)", "setting": "[1]; 0.18 mM", "value": 20.1, "unit": "%"}
    ]},
    {"compound": "Cc1c(C)c2c(c(C)c1O)CCC(C)(C(=O)NCCS)O2", "note": "(stereo not drawn) [Tocopherol-cysteamine]", "values": [
      {"measurement": "activity of 5 year-old vs new batch", "setting": "[2]; 0.010%, 5 year-old vs new batch", "value": "very similar"},
      {"measurement": "Inhibition", "setting": "[2]; 5 year-old, 0.010%", "value": 57.3, "unit": "%"},
      {"measurement": "retention of antioxidant activity on storage", "setting": "[2]", "value": "did not lose significant antioxidant activity over this five year period"},
      {"measurement": "retention of antioxidant activity on storage", "setting": "[2]; listed as tocopheryl-cysteamine", "value": "does not lose any significant anti-oxidant activity"},
      {"measurement": "Inhibition", "setting": "[2]; new batch, 0.010%", "value": 65.6, "unit": "%"},
      {"measurement": "stability compared with α-tocopherol", "setting": "[2]; storage at ambient temperatures", "value": "considerably more stable"},
      {"measurement": "% Inhibition (UV-induced lipid peroxidation)", "setting": "[1]; 0.18 mM", "value": 67.3, "unit": "%"},
      {"measurement": "antioxidant activity vs α-tocopherol and cysteamine assays combined", "setting": "[1]; equimolar, 0.18 mM", "value": "greater than that activity observed in both the α-tocopherol and cysteamine assays combined"},
      {"measurement": "average inhibition of UV-induced lipid peroxidation, previous experiments", "setting": "[1]; triplicate samplings assayed in duplicate", "value": "65.2% (+/-3.61)"},
      {"measurement": "amount of endogenous peroxides, week 8 vs week 0", "setting": "[3]; 8 weeks vs 0 time point, p value less than 0.1", "value": "significant decrease"},
      {"measurement": "amount of peroxides generated by UVB, week 8 vs week 0", "setting": "[3]; 8 weeks vs 0 time point, p<0.01, t test", "value": "significant decrease"},
      {"measurement": "average values vs untreated samples, 12 weeks", "setting": "[3]; 12 week time point, control and irradiated preparations", "value": "lower than the untreated samples"},
      {"measurement": "peroxide levels after irradiation over the course of treatment", "setting": "[3]; irradiated, treated arms", "value": "decreased over the course of treatment"},
      {"measurement": "average endogenous peroxide levels over time", "setting": "[3]; treated but not irradiated", "value": "decreased over time"},
      {"measurement": "average level of peroxides, 500 mJ/cm^2 + Ao", "setting": "[3]; [6]", "value": 17.69},
      {"measurement": "average level of peroxides, 0 + Ao", "setting": "[3]; [6]", "value": 9.10},
      {"measurement": "average level of peroxides, 500 mJ/cm^2 + Ao", "setting": "[3]; [7]", "value": 12.95},
      {"measurement": "average level of peroxides, 0 + Ao", "setting": "[3]; [7]", "value": 8.19},
      {"measurement": "average level of peroxides, 500 mJ/cm^2 + Ao", "setting": "[3]; [8]", "value": 10.33},
      {"measurement": "average level of peroxides, 0 + Ao", "setting": "[3]; [8]", "value": 6.56},
      {"measurement": "average level of peroxides, 500 mJ/cm^2 + Ao", "setting": "[3]; [9]", "value": 26.67},
      {"measurement": "average level of peroxides, 0 + Ao", "setting": "[3]; [9]", "value": 21.19}
    ]},
    {"compound": "Cc1c(C)c2c(c(C)c1O)CCC(C)(CCCC(C)CCCC(C)CCCC(C)C)O2", "note": "(stereo not drawn) [Tocopherol, α-Tocopherol]", "values": [
      {"measurement": "% Inhibition (UV-induced lipid peroxidation)", "setting": "[1]; 0.18 mM", "value": 28.9, "unit": "%"},
      {"measurement": "loss of antioxidant potency on storage", "setting": "[4]", "value": "lose its antioxidant potency, and in fact become a pro-oxidant; also recorded: gradually lose antioxidant potency and become a prooxidant"}
    ]},
    {"compound": "Cc1c(C)c2c(c(C)c1O)CCC(C)(C(=O)O)O2", "note": "(stereo not drawn) [Trolox-C, 6-hydroxy-2,5,7,8-tetra-methylchroman-2-carboxylic acid]", "values": [
      {"measurement": "antioxidant activity vs α-tocopherol and other commercial food antioxidants (butylated hydroxytoluene, butylated hydroxyanisole)", "setting": "[5]; Schaal thin layer oven and AOM tests", "value": "greater antioxidant activity than α-tocopherol and other commercial food antioxidants"},
      {"measurement": "antioxidant effectiveness in vegetable oils and animal fats", "setting": "[5]; vegetable oils and animal fats", "value": "extremely effective antioxidant"}
    ]}
  ]
}
